Several values for one entry are separate records, joined by “and”; a condition that tells them apart may be missing. Equal entries are not always repeated.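 Values below derive from 48-hour exposures of cells grown in 96-well plates, with endpoints linearly interpolated between the two concentrations bracketing the appropriate inhibition level. GI50 = concentration required for 50% inhibition of growth. TGI is the concentration that stops growth completely.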 Where a SMILES comes first, the peptide text is derived from it. [ ]: non-standard residue; d: D form. The star is where a group is joined. X13 = OC[C@H](CC1CCCCC1)N*; dIva = CC[C@@](C)(N)C(=O)O; Aib = CC(C)(N)C(=O)O
Tested on: MDA-MB-468 breast
Assay: DTP human tumour cell line panel, 48 h

Structure (SMILES)	GI50	TGI
COc1cc(C)c(Cl)cc1C1=NN(c2ccc(S(N)(=O)=O)cc2)C(/C=C/c2ccccc2)C1 (stereo not given)	2140 nM	5790 nM
O=C(CNc1ccc2c(c1)C(=O)c1ccccc1C2=O)Nc1ccc2c(c1)C(=O)c1ccccc1C2=O	896 nM	2480 nM
CCn1c(CN2CCN(Cc3ccccc3)CC2)nc2cc(NC(=O)c3cccs3)ccc21	6160 nM	47100 nM
Cc1ccccc1N=Nc1ccc(NC(=O)c2ccnn2C)c(C)c1	3840 nM	70600 nM
Cc1c(-c2c(-c3ccc(F)o3)sc3ncnc(O[C@H](Cc4ccccc4OCc4ccnn4CC(F)(F)F)C(=O)O)c23)ccc(OCCN2CCN(C)CC2)c1Cl	25.3 nM	105 nM
C=C(C)[C@@H]1CC[C@]2(COC)CC[C@]3(C)[C@H](CC[C@@H]4[C@@]5(C)CCCNC(C)(C)[C@@H]5CC[C@]43C)[C@@H]12	1570 nM	3180 nM
CC1(C)N=C(N)N=C(N)N1c1ccc(OCCCCOc2ccc(S(=O)(=O)F)cc2)c(Cl)c1	188 nM	8800 nM
O=[N+]([O-])c1ccc(-c2nnc(SCc3ccc(O)c4ncccc34)o2)cc1	396 nM	> 100000 nM
CC[C@@](C)(NC(=O)C(C)(C)NC(=O)[C@@H](NC(=O)[C@@H]1CCCN1C(=O)C(C)(C)NC(=O)[C@H](CC(C)C)NC(=O)CNC(=O)C(C)(C)NC(=O)[C@@H](NC(=O)C(C)(C)NC(=O)[C@H](CCC(N)=O)NC(=O)[C@H](C)NC(=O)C(C)(C)NC(=O)[C@H](C)NC(=O)C(C)(C)NC(=O)[C@H](C)NC(=O)C(C)(C)NC(C)=O)C(C)C)C(C)C)C(=O)N[C@@H](CCC(N)=O)C(=O)N[C@@H](CCC(N)=O)C(=O)N[C@H](CO)CC1CCCCC1 (Ac-[Aib]A[Aib]A[Aib]AQ[Aib]V[Aib]GL[Aib]PV[Aib][dIva]QQ-X13)	747 nM	4080 nM
O=c1c2ccccc2n(C[C@H]2CO2)c2ccccc12	1830 nM	3810 nM
CCOC(=O)N1CCc2cc(OC)c(OC)c3c2c1cc1cc(OC)c(OC)cc13	3170 nM	> 100000 nM
COC(=O)c1c2c(c(C)[n+]([O-])c1C)C(=O)C=C(NCc1ccc(F)c(Cl)c1)C2=O	200 nM	712 nM
CC(C)(O)CS(=O)(=O)Nc1ccc2c(c1)CCN(C(=O)COc1cccnc1)C2	> 100000 nM	> 100000 nM
COc1cc(NC2=C(Cl)C(=O)c3nc(C)ccc3C2=O)cc(OC)c1	1230 nM	2570 nM
COC(=O)C1=C(C(=O)ON)C2C=CC1(C(Cc1ccccc1)Nc1ccccc1)O2 (stereo not given)	1420 nM	2800 nM
COc1ncc(-c2ccc3nccc(-c4ccnnc4)c3c2)cc1NS(=O)(=O)c1ccc(F)cc1F	2.7 nM and < 10 nM	26.6 nM and 15.8 nM
C=C1C(=O)O[C@H]2[C@H]1CC/C(Cn1cc(-c3cc(C(F)(F)F)cc(C(F)(F)F)c3)nn1)=C\CC[C@@]1(C)O[C@@H]21	424 nM	1750 nM
O=C1c2cc3c(cc2-c2c1c1ccc(Cl)cc1c(=O)n2CCCNCCO)OCO3	85 nM	2350 nM
Nc1c(Br)cc(Br)c2c1[nH]c(=O)c1ccccc12	550 nM	8900 nM
CC(C)(C)c1nn(-c2ccccc2)c2c1C(=O)CSC(c1ccccc1Cl)N2 (stereo not given)	1010 nM	12100 nM
O=C1NC(O)C(c2c[nH]c3ccccc23)=C1c1c[nH]c2ccccc12 (stereo not given)	> 25000 nM	> 25000 nM
O=C1/C(=C/c2ccccc2)CN(C(=O)c2cccnc2)C/C1=C\c1ccccc1	1820 nM	4240 nM
O=C1C(=O)c2ccccc2C(O)=C1CC=C(Br)Br	11400 nM	41800 nM

Structure (SMILES)	GI50	TGI
Ic1ccccc1-c1ccccc1	85000 nM	> 100000 nM
C/C(=N/Nc1nc2ccccc2n1C)c1ccccn1	31.9 nM	239 nM
COC1CC2CCC(C)C(O)(O2)C(=O)C(=O)N2CCCCC2C(=O)OC(C(C)CC2CCC(O)C(OC)C2)CC(=O)C(C)C=C(C)C(O)C(OC)C(=O)C(C)CC(C)/C=C/C=C/C=C1C (stereo not given)	< 5 nM	7350 nM
C=CC(=O)N1CCN(c2nc(=O)n(-c3c(C)ccnc3C(C)C)c3nc(-c4c(O)cccc4F)c(F)cc23)[C@@H](C)C1	22000 nM	> 81100 nM
Cn1c(/C=C(\C#N)c2ccccc2)nc2c(N3CCOCC3)nc(Cl)nc21	688 nM	2190 nM
Fc1ccc2c(c1)c(-c1nc(-c3c[nH]c4ncccc34)cs1)cn2CCCN1CCCCC1	1610 nM	3230 nM
COc1cc(-c2nn(-c3cccc(NC(=O)Nc4cc(C(F)(F)F)cc(C(F)(F)F)c4)c3)cc2-c2ccncc2)ccc1Cl	236 nM	2310 nM
Cc1cc2nc3c4cc(N)ccc4n(CCN(C)C)c3nc2cc1C	1040 nM	2790 nM
COc1ccccc1CCN=C1NC(=O)/C(=C/c2ccc3ncccc3c2)S1	4590 nM	16400 nM
NC(N)=N/N=C\c1cccc(OCc2ccccc2)c1	1340 nM	2730 nM
CC[C@H](Nc1nc(NCc2cnc(C)cc2C)c2ncn(C(C)C)c2n1)[C@@H](C)O	192 nM	470 nM
CC(C)[C@H](CO)Nc1nc(Nc2ccc(C(=O)NCCNS(=O)(=O)c3cccc4c(N(C)C)cccc34)c(Cl)c2)c2ncn(C(C)C)c2n1	1690 nM	6750 nM
COc1ccc(-c2nnc(SCc3ccc(O)c4ncccc34)n2-c2ccccc2)cc1	810 nM	6570 nM
C#CCC(Cc1cnc2nc(N)nc(N)c2n1)c1ccc(C(=O)N[C@@H](CCC(=O)O)C(=O)O)cc1 (stereo not given in full)	< 10 nM	> 20400 nM
CC1=C2C[C@H]3[C@@H](CC[C@@H]4CC(NS(C)(=O)=O)CC[C@@]43C)[C@@H]2CC[C@@]2(C1)O[C@@H]1C[C@H](C)CN[C@H]1[C@H]2C (stereo not given in full)	2000 nM	5620 nM
C/C(=N\Nc1cc(C)c2cc(C)ccc2n1)c1ccccn1	65.4 nM	318 nM
CCC/C(=N/N=C(N)N)c1ccc(NC(=O)c2cc3cc(OC)ccc3[nH]2)cc1	2340 nM	12100 nM
COc1ccc(/C=C\c2cc(OC)c(OC)c(OC)c2)cc1OC(=O)c1cccc(Cn2cc(CCOC(=O)[C@H](N)Cc3cn(C)c4ccccc34)nn2)c1	< 10 nM	3570 nM
CCOc1ccc(-c2nonc2NC(=O)c2cccc(C)c2)cc1OCC	17600 nM	48800 nM
CCc1c(C#N)c(S[C@@H](C(N)=O)c2ccccc2)nc(N(C)C)c1C#N	6140 nM	> 100000 nM
O=C(/C=C/c1cccnc1)NCCCCC1CCCN(C(=O)c2ccccc2)C1 (stereo not given)	13600 nM	> 100000 nM
CCCc1cc2c(=O)c(C(=O)OC)c[nH]c2cc1N(CC)CC	24400 nM	> 100000 nM
